Results from patent US5654303A, “Alkyl amine derivatives of substituted quinoxaline 2,3-diones as glutamate receptor antagonists” (Warner-Lambert Company, priority 1995, dated 1997).

Key:
[1] = biological target: kainate site (non-NMDA receptor); assay: Kainate site (non-NMDA receptor) binding (London and Coyle), Table 1 'KA'
CF-1 strain mice = assay: maximal electroshock (MES) assay in mice; assay type: in vivo; conditions: IV
Source text: Additionally, a preliminary indicator of in vivo CNS activity related to anticonvulsant activity and potential neuroprotection, is a maximal electroshock (MES) assay in CF-1 strain mice (20-25 g) performed with corneal electrodes by conventional methods as described previously (Krall, et al., Epilepsia, 1988;19:409-428).
MES (IV) Data for Compound 1 from Table 1 [drawing 23]

AMPA receptors = assay: AMPA receptor binding (Honore et al.), Table 1

Row | SMILES | IC50 KA [1] [µM] | IC50 (AMPA receptors) [nM] | also measured
1 | Cc1c([N+](=O)[O-])cc2[nH]c(=O)c(=O)[nH]c2c1CN(C)C [Compound 1] | 4.483 | 1500 | Ataxic (%) (CF-1 strain mice; 3 min, 10 mg/kg): 0%; Protected (%) (CF-1 strain mice; 3 min, 10 mg/kg): 40%; Ataxic (%) (CF-1 strain mice; 3 min, 30 mg/kg): 20%; Protected (%) (CF-1 strain mice; 3 min, 30 mg/kg): 60%; Ataxic (%) (CF-1 strain mice; 30 min, 10 mg/kg): 40%; Protected (%) (CF-1 strain mice; 30 min, 10 mg/kg): 60%; Ataxic (%) (CF-1 strain mice; 30 min, 30 mg/kg): 40%; Protected (%) (CF-1 strain mice; 30 min, 30 mg/kg): 80%
2 | CCN(CC)Cc1c(C)c([N+](=O)[O-])cc2[nH]c(=O)c(=O)[nH]c12 [Compound 2] | 6.647 | 689 | 
3 | CCCN(CCC)Cc1c(C)c([N+](=O)[O-])cc2[nH]c(=O)c(=O)[nH]c12 [Compound 3] | 24.93 | 1630 | 
4 | CCCCN(CCCC)Cc1c(C)c([N+](=O)[O-])cc2[nH]c(=O)c(=O)[nH]c12 [Compound 4] | 20.50 | 4640 | 
5 | Cc1c([N+](=O)[O-])cc2[nH]c(=O)c(=O)[nH]c2c1CNC1CCCCC1 [Compound 5] | 5.128 | 1260 | 
6 | Cc1c([N+](=O)[O-])cc2[nH]c(=O)c(=O)[nH]c2c1CN(C)C1CCCCC1 [Compound 6] | 5.331 | 3230 | 
7 | Cc1c([N+](=O)[O-])cc2[nH]c(=O)c(=O)[nH]c2c1CN(C)C(C)C [Compound 7] | 8.23 | 1150 | 
